Targets include IRAK1 (Homo sapiens, UniProt P51617); JAK2 (Homo sapiens, UniProt O60674); ACVR2B (Homo sapiens, UniProt Q13705); RPS6KA3 (Homo sapiens, UniProt P51812); MAPK7 (Homo sapiens, UniProt Q13164); ERN1 (Homo sapiens, UniProt O75460); PRKAA1 (Homo sapiens, UniProt Q13131); RPS6KA1 (Homo sapiens, UniProt Q15418); MAP2K3 (Homo sapiens, UniProt P46734); MAPK6 (Homo sapiens, UniProt Q16659); STK17B (Homo sapiens, UniProt O94768); MAP4K4 (Homo sapiens, UniProt O95819); DSTYK (Homo sapiens, UniProt Q6XUX3).

What all share (assay): biochemical
The next test deals with T1, MAP3K3 (Homo sapiens, UniProt Q99759).
T1 sequence (Q99759 1-626): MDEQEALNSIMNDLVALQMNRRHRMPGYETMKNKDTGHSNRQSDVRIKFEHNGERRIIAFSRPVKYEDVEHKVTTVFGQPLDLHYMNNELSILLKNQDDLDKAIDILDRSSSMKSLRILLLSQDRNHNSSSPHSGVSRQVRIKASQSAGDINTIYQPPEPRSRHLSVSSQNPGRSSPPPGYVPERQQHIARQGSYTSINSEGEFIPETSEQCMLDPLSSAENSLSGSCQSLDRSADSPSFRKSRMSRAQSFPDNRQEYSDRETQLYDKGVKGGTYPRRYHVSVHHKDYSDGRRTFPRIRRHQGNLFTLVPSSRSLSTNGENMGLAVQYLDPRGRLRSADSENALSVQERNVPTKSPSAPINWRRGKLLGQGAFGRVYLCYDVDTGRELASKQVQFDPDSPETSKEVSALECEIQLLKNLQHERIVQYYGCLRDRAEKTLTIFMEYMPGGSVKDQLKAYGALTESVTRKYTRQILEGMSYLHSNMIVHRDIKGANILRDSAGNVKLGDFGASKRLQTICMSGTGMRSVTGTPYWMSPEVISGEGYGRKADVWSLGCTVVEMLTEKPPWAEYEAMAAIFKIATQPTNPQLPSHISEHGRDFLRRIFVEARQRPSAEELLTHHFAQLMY

The target of another test is T2, NLK (Homo sapiens, UniProt Q9UBE8).
T2 sequence (Q9UBE8 1-527): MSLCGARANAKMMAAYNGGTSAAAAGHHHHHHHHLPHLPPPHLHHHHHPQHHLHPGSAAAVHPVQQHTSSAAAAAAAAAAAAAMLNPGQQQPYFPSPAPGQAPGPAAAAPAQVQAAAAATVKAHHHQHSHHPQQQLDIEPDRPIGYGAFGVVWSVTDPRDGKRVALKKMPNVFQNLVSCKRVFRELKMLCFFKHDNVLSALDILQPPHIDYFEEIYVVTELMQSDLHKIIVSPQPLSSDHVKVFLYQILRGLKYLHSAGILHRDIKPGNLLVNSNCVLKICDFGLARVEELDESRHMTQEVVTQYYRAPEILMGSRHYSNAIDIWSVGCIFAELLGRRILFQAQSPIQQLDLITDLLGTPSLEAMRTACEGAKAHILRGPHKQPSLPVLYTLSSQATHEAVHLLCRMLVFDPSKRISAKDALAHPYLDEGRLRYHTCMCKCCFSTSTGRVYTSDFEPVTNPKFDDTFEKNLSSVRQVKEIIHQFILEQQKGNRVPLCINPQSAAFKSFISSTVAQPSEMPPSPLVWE

In the next test the target is T3, MARK4 (Homo sapiens, UniProt Q96L34).
T3 sequence (Q96L34 1-752): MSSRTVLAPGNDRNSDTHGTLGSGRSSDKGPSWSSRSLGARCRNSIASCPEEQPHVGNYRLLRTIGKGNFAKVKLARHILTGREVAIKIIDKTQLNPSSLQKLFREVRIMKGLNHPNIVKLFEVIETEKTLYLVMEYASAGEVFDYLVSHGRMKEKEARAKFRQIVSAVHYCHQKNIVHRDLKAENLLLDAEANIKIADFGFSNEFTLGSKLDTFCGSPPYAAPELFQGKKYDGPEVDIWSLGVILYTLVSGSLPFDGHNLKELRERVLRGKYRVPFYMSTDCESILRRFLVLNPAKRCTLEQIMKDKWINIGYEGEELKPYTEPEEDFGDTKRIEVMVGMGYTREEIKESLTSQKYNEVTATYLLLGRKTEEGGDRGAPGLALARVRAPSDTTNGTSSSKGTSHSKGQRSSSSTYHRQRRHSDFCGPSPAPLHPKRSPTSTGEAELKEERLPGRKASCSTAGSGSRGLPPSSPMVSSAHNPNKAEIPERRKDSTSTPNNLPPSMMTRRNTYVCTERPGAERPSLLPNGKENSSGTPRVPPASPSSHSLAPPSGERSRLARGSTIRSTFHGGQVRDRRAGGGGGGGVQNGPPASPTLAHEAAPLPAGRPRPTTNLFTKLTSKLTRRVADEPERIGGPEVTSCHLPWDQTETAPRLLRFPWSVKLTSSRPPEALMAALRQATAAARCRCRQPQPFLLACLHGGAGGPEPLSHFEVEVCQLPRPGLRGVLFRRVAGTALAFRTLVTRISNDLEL

Experimental findings from article PMC4774911, “Biochemical Screening of Five Protein Kinases from Plasmodium falciparum against 14,000 Cell-Active Compounds” (PLoS ONE, 2016) are described below.

The IC50 is the midpoint of a concentration-inhibition curve.

Molecules are shown by their SMILES. “And” between values parts separate entries of the source, which are not always exact repeats. Equal entries are not always repeated.

Chain of JAK2 (O60674 whole entry): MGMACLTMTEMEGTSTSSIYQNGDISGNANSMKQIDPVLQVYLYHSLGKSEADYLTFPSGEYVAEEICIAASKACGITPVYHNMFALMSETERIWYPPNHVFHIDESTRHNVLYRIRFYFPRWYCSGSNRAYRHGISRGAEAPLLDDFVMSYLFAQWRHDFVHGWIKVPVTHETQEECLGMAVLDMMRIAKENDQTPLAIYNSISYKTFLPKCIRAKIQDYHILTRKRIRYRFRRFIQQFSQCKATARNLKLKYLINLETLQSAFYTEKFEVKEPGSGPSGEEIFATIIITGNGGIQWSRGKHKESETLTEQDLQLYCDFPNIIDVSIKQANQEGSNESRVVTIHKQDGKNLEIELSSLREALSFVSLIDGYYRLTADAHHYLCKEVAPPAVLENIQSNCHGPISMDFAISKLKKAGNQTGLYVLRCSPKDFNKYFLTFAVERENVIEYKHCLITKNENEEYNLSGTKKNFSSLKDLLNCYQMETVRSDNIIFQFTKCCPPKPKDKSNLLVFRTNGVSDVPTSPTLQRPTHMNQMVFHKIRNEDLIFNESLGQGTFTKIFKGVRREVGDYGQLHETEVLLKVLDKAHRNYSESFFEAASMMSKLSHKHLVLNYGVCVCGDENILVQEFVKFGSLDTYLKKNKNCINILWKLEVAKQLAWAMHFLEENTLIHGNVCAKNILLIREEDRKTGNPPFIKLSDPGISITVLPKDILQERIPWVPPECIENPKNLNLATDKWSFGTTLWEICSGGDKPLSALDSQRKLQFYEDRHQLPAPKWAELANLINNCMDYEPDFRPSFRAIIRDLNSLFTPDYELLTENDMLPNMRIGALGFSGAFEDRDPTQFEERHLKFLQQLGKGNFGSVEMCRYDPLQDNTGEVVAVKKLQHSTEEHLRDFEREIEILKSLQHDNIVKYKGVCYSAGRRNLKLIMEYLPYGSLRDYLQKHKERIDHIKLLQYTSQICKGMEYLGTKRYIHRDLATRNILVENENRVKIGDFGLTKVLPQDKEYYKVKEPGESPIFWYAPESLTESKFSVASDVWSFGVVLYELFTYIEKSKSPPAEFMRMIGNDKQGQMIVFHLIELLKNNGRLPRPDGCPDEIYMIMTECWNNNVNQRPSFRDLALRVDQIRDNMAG
Chain of RPS6KA3 (P51812 whole entry): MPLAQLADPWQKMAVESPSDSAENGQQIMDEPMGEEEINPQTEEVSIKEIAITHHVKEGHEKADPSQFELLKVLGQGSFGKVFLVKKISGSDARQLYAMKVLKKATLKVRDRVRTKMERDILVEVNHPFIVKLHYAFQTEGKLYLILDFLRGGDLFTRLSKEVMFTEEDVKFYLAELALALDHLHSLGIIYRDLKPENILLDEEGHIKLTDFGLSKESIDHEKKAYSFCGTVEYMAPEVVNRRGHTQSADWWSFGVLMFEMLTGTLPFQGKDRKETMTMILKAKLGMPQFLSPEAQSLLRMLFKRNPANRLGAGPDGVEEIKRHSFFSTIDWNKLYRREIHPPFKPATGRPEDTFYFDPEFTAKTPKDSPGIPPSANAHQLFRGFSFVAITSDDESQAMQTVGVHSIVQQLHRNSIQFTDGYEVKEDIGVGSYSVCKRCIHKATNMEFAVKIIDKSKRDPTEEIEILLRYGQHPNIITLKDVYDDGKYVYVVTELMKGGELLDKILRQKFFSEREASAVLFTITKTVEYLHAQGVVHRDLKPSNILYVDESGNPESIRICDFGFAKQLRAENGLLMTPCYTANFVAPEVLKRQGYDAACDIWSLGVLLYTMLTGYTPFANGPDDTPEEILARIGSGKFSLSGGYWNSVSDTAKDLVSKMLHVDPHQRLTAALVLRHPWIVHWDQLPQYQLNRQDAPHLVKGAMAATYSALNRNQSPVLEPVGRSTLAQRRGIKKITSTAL
Chain of IRAK1 (P51617 whole entry): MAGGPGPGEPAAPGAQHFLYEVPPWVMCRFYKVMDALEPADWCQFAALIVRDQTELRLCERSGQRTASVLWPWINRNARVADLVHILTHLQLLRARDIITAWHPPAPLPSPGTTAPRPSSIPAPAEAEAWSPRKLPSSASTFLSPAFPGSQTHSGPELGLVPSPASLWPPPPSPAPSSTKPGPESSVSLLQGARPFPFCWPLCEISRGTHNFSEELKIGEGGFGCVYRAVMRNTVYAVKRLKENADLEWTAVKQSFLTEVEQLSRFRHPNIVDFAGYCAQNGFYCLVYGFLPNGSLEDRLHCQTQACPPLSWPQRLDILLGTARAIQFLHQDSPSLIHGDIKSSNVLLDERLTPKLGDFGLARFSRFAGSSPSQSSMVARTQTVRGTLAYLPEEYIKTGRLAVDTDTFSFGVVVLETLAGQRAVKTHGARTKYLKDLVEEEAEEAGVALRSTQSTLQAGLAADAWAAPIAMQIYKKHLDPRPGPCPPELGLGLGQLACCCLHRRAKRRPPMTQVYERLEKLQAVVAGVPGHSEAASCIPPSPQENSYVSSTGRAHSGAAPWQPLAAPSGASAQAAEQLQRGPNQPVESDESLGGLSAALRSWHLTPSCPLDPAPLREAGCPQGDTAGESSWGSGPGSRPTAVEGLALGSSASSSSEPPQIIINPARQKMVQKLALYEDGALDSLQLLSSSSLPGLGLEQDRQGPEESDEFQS
Chain of MAP4K4 (O95819 whole entry): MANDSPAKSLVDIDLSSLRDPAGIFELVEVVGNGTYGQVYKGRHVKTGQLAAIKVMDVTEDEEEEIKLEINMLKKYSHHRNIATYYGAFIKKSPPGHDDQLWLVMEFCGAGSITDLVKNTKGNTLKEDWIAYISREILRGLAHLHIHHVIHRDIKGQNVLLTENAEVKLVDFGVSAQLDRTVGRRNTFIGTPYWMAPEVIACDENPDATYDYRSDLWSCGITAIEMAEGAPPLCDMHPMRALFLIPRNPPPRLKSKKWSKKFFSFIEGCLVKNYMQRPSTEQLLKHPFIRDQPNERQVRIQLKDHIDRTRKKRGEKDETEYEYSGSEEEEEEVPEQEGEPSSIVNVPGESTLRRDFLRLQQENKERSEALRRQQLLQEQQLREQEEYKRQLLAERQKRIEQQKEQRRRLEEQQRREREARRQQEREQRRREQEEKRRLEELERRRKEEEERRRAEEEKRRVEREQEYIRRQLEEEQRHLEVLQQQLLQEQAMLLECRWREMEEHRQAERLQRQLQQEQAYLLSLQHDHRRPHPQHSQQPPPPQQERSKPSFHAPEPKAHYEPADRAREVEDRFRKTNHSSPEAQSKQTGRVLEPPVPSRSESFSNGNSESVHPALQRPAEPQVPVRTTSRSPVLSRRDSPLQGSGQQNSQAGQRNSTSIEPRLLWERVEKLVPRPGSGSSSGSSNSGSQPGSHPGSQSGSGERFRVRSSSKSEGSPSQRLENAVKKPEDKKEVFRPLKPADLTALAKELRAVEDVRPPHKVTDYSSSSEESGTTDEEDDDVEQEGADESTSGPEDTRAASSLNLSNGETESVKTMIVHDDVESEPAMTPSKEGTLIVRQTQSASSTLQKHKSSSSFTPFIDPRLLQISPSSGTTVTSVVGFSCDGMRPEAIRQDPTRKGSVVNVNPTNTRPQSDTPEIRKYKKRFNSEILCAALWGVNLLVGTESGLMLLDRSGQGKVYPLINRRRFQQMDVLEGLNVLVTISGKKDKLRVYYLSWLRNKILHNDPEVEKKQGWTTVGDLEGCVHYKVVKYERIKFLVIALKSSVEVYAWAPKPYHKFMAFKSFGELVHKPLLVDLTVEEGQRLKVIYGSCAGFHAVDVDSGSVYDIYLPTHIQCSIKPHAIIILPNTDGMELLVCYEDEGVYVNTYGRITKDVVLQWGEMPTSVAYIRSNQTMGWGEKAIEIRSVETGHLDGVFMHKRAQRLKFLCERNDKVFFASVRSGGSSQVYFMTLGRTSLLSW
Chain of MAPK7 (Q13164 whole entry): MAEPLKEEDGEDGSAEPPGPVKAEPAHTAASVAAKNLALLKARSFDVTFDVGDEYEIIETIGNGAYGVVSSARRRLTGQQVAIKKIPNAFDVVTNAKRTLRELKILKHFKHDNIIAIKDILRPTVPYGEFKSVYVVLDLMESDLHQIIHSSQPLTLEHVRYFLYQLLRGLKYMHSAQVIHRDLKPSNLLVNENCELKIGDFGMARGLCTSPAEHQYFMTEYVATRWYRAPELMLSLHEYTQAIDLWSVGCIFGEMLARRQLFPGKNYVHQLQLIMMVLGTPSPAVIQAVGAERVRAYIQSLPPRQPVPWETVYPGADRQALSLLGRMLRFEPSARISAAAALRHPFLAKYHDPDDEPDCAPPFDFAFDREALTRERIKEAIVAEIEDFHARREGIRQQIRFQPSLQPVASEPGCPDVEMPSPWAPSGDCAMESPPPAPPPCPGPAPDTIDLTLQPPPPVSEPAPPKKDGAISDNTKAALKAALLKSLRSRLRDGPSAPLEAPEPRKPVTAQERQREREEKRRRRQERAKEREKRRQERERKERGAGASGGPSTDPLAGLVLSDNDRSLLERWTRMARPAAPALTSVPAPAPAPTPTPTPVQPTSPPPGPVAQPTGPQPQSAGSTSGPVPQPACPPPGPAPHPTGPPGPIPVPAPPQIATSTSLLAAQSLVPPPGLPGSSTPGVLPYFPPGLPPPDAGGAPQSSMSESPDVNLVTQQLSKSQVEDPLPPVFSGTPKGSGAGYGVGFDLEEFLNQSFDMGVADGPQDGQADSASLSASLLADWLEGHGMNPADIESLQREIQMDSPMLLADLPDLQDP
Chain of MAP2K3 (P46734 whole entry): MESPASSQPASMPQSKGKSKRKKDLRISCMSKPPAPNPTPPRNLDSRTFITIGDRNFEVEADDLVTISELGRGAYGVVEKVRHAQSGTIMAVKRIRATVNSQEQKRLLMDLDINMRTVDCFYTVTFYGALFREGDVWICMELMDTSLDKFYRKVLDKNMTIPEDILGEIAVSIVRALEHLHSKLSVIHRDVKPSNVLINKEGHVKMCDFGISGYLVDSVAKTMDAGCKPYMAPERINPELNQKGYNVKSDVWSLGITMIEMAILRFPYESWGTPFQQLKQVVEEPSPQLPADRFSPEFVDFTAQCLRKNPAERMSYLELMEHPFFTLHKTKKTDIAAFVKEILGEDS

`CN1CCN(c2ccc(Nc3ncc(C#N)c(Nc4ccccc4C(N)=O)n3)cc2)CC1.Cl` [TCMDC-134116]: the IC50 was 0.31 µM against MAP3K3; 0.16 µM and 0.14 µM on IRAK1; 1.6 µM and 1.5 µM against NLK; 0.51 µM and 0.33 µM at JAK2; more than 20 µM against ACVR2B; 0.089 µM and 0.12 µM on RPS6KA3. Further, the IC50 was 0.28 µM and 0.38 µM at MAPK7; 0.17 µM at ERN1; 0.038 µM and 0.049 µM at PRKAA1; 0.15 µM against RPS6KA1.

`Cl.NCC1(c2nc(-c3ccc(Cl)c(O)c3)c(-c3ccncc3)[nH]2)CCCCC1` [TCMDC-141154]: the IC50 on MAP2K3, against MAPK6, against IRAK1, at JAK2, at RPS6KA3 and against MARK4 was more than 20 µM each time. Further, the half-inhibitory concentration (IC50) on STK17B is more than 20 µM; against MAPK7, 1.1 µM and 1.9 µM; at RPS6KA1, more than 20 µM; on MAP4K4, 1.5 µM and 0.95 µM; on DSTYK it was more than 20 µM.

For `CN(C)CC(O)COc1ccc(Nc2ncc([N+](=O)[O-])c(Nc3ccccc3O)n2)cc1.O=C(O)C(F)(F)F` (centres unmarked) [TCMDC-141399], the IC50 on MAP2K3 is more than 20 µM; against MAP3K3, 6 µM and > 20 µM; at MAPK6, 0.32 µM; against NLK, more than 20 µM; against ACVR2B, more than 20 µM; on MARK4 it was 12 µM and 7.6 µM. In addition, the 50% inhibitory concentration (IC50) against STK17B was more than 20 µM; against ERN1, more than 20 µM; on PRKAA1 it was 7.1 µM and 7.7 µM; on MAP4K4, 1.8 µM and 1.2 µM; at DSTYK, more than 20 µM.
